Assay type in all cases: functional
Test [1] deals with Human immunodeficiency virus 1. As to the kind of experiment: Antiviral activity against HIV-1 subtype CRF02_AG containing reverse transcriptase Y181C/V35T, V60I, I135V, S162A, K173T, Q174K, N175Y, D177E, T200A, Q207E, R211K, H221Y mutant relative to control.
In test [2] the test system is Human immunodeficiency virus 1. Kind of test: Antiviral activity against HIV-1 subtype CRF02_AG containing reverse transcriptase E138A/K20R, V35T, E36A, T39D, V60I, I135V, T139I, K173A, Q174K, T200E, Q207A, R211K, F214L mutant relative to control.
The subject of test [3] is Human immunodeficiency virus 1. As to the kind of experiment: Antiviral activity against HIV-1 subtype CRF02_AG containing reverse transcriptase A98G/V35T, V60I, I135L, S162A, K173A, Q174K, D177E, I178M, T200A,Q207E, R211K, V245Q, D250E mutant relative to control.
For test [4], the system named is Human immunodeficiency virus 1. Kind of test: Antiviral activity against HIV-1 subtype CRF02_AG containing reverse transcriptase E138A/K20R, V35T, E36D, T39N, V60I, D123N, I135V, S162A, K173T, Q174K, D177E, T200A, Q207E, R211K mutant relative to control.
The subject of test [5] is Human immunodeficiency virus 1. Kind of test: Antiviral activity against HIV-1 subtype CRF02_AG containing reverse transcriptase V90I,Y181C/V35T, T39M, P119S, D123E, S162A, E169D, K173T, Q174K, D177E, T200A, Q207E, K219N, V245Q, E248D mutant relative to control.
Test [6] deals with Human immunodeficiency virus 1. Kind of test: Antiviral activity against HIV-1 subtype CRF02_AG containing reverse transcriptase K101E/K30E, I31P, V35Q, T39S, E44G, E53G, A62G, N81H, Q91H,I135V,S162A, K173S, Q174R, D177E, V179I, T200I, Q207N, R211K, F214L mutant relative to control.
Test [7] has as its system Human immunodeficiency virus 1. Kind of test: Antiviral activity against HIV-1 subtype CRF02_AG containing reverse transcriptase V90I,A98G/V35T, E36D, T39K, S48A, I50V, V60I, S68G, I135V, S162A, K173T, Q174K, D177E, G196E, T200A, E203G, Q207D, R211K, Q222P mutant relative to control.
Test [8] concerns Human immunodeficiency virus 1. As to the kind of experiment: Antiviral activity against HIV-1 subtype CRF02_AG containing reverse transcriptase V90I/V35T, T39M, K46Q, V60I, S68G, D123E, I135V, S162A, K173A, Q174K,D177E, T200A, Q207E, R211K mutant relative to control.
Test [9] relates to Human immunodeficiency virus 1. As to the kind of experiment: Antiviral activity against HIV-1 subtype CRF02_AG containing reverse transcriptase V90I/V35T, E36D, V60I, K122E, D123S, I135V, E138D, S162A, K173T,Q174S, D177E, I178M, V189I, T200A, I202V, Q207E, F214L, V245Q mutant relative to control.

On to `Cc1ccnc2c1NC(=O)c1cccnc1N2C1CC1` [NEVIRAPINE], for which the “Ratio IC50” value is over 49.6 in test [1]; 0.5 in [2]; 8.3 in test [3]; 0.4 in [4]; over 70.9 in [5]; 2.2 in test [6]. The “Ratio IC50” value in [7] is recorded as 2.4; in test [8], 1.3; in test [9], 0.7.
Consider `Cc1cc(C#N)cc(C)c1Oc1nc(Nc2ccc(C#N)cc2)nc(N)c1Br` [ETRAVIRINE], for which the “Ratio IC50” value in test [1] is 11.1; in [2], 3; in [3], 2.9; in [4], 1.7; in [5], 3.3; in test [6], 1.3. For the same compound, the “Ratio IC50” value came to 1.2 in [7], 1.6 in [8] and 1.3 in test [9].

For the origin of these results see ChEMBL document CHEMBL1212803, “Resistance-associated mutations to etravirine (TMC-125) in antiretroviral-naïve patients infected with non-B HIV-1 subtypes” (2010).
